For data set [1] the following is noted: reported, Schantl et al. 2020; cited from earlier work.
Data set [2] concerns RPTEC/TERT 1 human proximal tubule cells. The experiment in a line: RNA sequencing of Ca/P treated RPTEC. In kind it is cell-based. To be noted: 50 μM, 5/7 mM Ca/P, 24 h. The source says:
A) Heatmap and hierarchical clustering of relative gene expression levels determined by RNA sequencing. […] Weighted set coverage of gene ontology terms and their respective enrichment score for differentially expressed genes in the Ca/P vs. medium control group is plotted (all FDR≤0.05). D) Normalized count of gene transcripts (FPKM—fragments per kilobase of exon model per million reads mapped) involved in inflammatory responses, ECM composition, cell proliferation and tissue homeostasis of the different treatment groups is plotted (mean+SD, N=3).
Cells were cultured as described in the imaging assay and treated with a medium control (ProxUp basal medium containing 1/1 mM Ca/P), 5/7 mM Ca/P, 5/7 mM Ca/P in medium containing 50 µM (OEG2)2-IP4 or 50 µM (OEG2)2-IP4 in medium for 24 h. Total RNA was extracted using the RNeasy kit (Quiagen) according to the manufacturer's instructions. Three wells per sample group were prepared and total RNA extracted of those 3 wells pooled. mRNA was purified and RNAseq library was prepared using the TrueSeq RNA kit (Illumina). […] Reads were aligned to the human reference genome GRCh38.p10 using the STAR tool (https://github.com/alexdobin/STAR) and transcripts quantified using the Kallisto program (42). […] For comparison of expression levels of the selected genes, the fragments per kilobase of exon model per million reads mapped (FPKM) were used. […]

Data set [3] has as its system high phosphate-induced kidney damage. The data set can be described thus: mouse model of high phosphate-induced kidney damage. To be noted: 100 mg/kg 3 times/week subcutaneously, high phosphate diet, vs vehicle. In kind it is in vivo, C57BL/6 male mice. Here is the method: C57BL/6 male were placed on either regular diet containing 0.35% inorganic phosphate (NP) or high phosphate diet containing 2.0% inorganic phosphate (HP). These mice were subcutaneously injected with either (OEG2)2-IP4 (100 mg/kg) or vehicle (distilled water) three times a week and then sacrificed at 20 weeks of age to harvest their blood and kidneys. Relative mRNA levels of (A) Spp1, (B) IL36a, (C) Ngal, (D) MMP3 and (E) Col1a1 in kidney tissue homogenate are shown (mean±SD, N=7, except HP vehicle group N=6, two-way ANOVA with Sidak's multiple comparison between (OEG2)2-IP4 vs. vehicle control within the respective diet group, ns—not significant, * p<0.05). […]
C57BL/6 male mice (12 weeks of age) were placed on either regular diet containing 0.35% inorganic phosphate or high phosphate diet containing 2.0% inorganic phosphate. […] Serum FGF23 levels were measured using intact FGF23 ELISA (Kinos) according to the manufacturers' protocols. Serum and urine levels of phosphate were measured using Fuji Dri-Chem slides and the analyzer (Dri-Chem NX500V, Fuji, Tokyo, Japan). […] Quantitative RT-PCR reactions were performed using 20 ng of cDNA incubated with 410 nM of each primer and 6 μL of SYBR Green PCR Master mix (Toyoba, Osaka, Japan THUNDERBIRD SYBR qPCR Mix QPS-201) in a total volume of 12 μl. […] The cortex and the cortico-medullary junction were evaluated separately. […]

The conditions of data set [4]: previous study, Kletzmayr et al. 2020; cited from earlier work.

On to `COCCOCCO[C@@H]1C(OP(=O)(O)O)[C@H](OCCOCCOC)[C@@H](OP(=O)(O)O)C(OP(=O)(O)O)[C@H]1OP(=O)(O)O` (some centres unmarked) [(OEG2)2-IP4], for which the pharmacokinetic profile result in data set [1] is given as “favorable”. Further, the “Ca/P-induced change in gene expression profile” value in data set [2] is listed as “prevented”. For the same compound, in data set [3], the “fibrosis, collagen volume fraction (Picro-Sirius red staining of the kidneys)” value is “significantly reduces fibrosis”; the “kidney damage and fibrosis markers (Spp1, IL36a, Ngal, MMP3, Col1a1 mRNA)” value is recorded as “significantly reduced”. Further, the “efficacy on CaOx crystallization in solution” value in data set [4] is listed as “limited efficacy”.

The values are drawn from patent US12076331B2, “Inositol derivatives for use in pathological crystallization” (ETH Zurich, priority 2015, dated 2024).
